Measurements as given in the OligoGym collection.
Several values for one entry are separate records, joined by “and”; a condition that tells them apart may be missing. Equal values may be shown once. After the bases stand the sugars from the 5' end (letter, count) and the backbone: PS all phosphorothioate, else s phosphorothioate and o phosphodiester by linkage. Methylation of C is not given here. e = 2'-O-(2-methoxyethyl) (MOE); k = constrained ethyl (cEt); d = 2'-deoxy (DNA)

These sequences were tested against MALAT1. Conditions: ASO, A431, 0.005 µM.
AGCAGCGGGATCAGAA (sugars k3 d10 k3, PS) was tested, and the target mRNA inhibition was 19%. Sequence AGCCAAGCCGCCTGCT (sugars k3 d10 k3, PS) has a target mRNA inhibition of 20%. AGCCTTCAGAGATTCA (sugars k3 d10 k3, PS) was tested, and the target mRNA inhibition was 75% and 91%. With AGCGGTACACTCCTTC (sugars k3 d10 k3, PS) the target mRNA inhibition was 50% and 43%. Sequence AGCTACAACAAGTAAG (sugars k3 d10 k3, PS) has a target mRNA inhibition of 12%. Work on AGCTACTTAGCTGTGG (sugars k3 d10 k3, PS) yielded a target mRNA inhibition of 34%. In the case of AGCTCCTGACAAATTA (sugars k3 d10 k3, PS), the target mRNA inhibition is reported as 15%. For AGCTGAACTATCACAA (sugars k3 d10 k3, PS), the target mRNA inhibition was 5%. Work on AGCTGAGGCTTCCCGG (sugars k3 d10 k3, PS) yielded a target mRNA inhibition of 12%. With AGCTGTTTAAGTCACC (sugars k3 d10 k3, PS) the target mRNA inhibition was 62% and 57%. For AGCTTGACAAGCAATT (sugars k3 d10 k3, PS), the target mRNA inhibition was 16%. In the case of AGGACTTGGCAGTCTG (sugars k3 d10 k3, PS), the target mRNA inhibition is reported as 30%. Sequence AGGATCCAAGCTACTG (sugars k3 d10 k3, PS) has a target mRNA inhibition of -13%. In the case of AGGATGAAATGCCTCT (sugars k3 d10 k3, PS), the target mRNA inhibition is reported as 22%. In the case of “AGGCAAACGAAACATTGGCA (sugars e5 d10 e5, PS)”, the target mRNA inhibition is reported as 3% and 12%. AGGCAAATCGCCATGG (sugars k3 d10 k3, PS) showed a target mRNA inhibition of 5%. Sequence AGGCAGTTATATTAGG (sugars k3 d10 k3, PS) has a target mRNA inhibition of 26%. For AGGGACAGTAGGTATA (sugars k3 d10 k3, PS), the target mRNA inhibition was 16%. AGGTATGACATATAAT (sugars k3 d10 k3, PS) gave a target mRNA inhibition of 35%. With AGTAACCTATTGACTA (sugars k3 d10 k3, PS) the target mRNA inhibition was -16%. AGTAAGAATCTCAGGG (sugars k3 d10 k3, PS) showed a target mRNA inhibition of 45%. With AGTAAGCCCCACCCCC (sugars k3 d10 k3, PS) the target mRNA inhibition was 29%. In the case of AGTAGACCAACTAAGC (sugars k3 d10 k3, PS), the target mRNA inhibition is reported as 25%. In the case of AGTAGGCCAGACCAAC (sugars k3 d10 k3, PS), the target mRNA inhibition is reported as 4%. AGTAGGTATAGTTTAC (sugars k3 d10 k3, PS) was tested, and the target mRNA inhibition was 10%. For AGTATTACTCTAATCA (sugars k3 d10 k3, PS), the target mRNA inhibition was 23%. AGTATTATAATAGAGC (sugars k3 d10 k3, PS) was tested, and the target mRNA inhibition was 20%. In the case of AGTCCTAGCTTCATCA (sugars k3 d10 k3, PS), the target mRNA inhibition is reported as 27%. Work on AGTCTACAAGTTACAT (sugars k3 d10 k3, PS) yielded a target mRNA inhibition of 3%. For AGTGTACTATCCCATC (sugars k3 d10 k3, PS), the target mRNA inhibition was 78% and 91%. In the case of AGTGTTTACACTGCTC (sugars k3 d10 k3, PS), the target mRNA inhibition is reported as 22%. In the case of AGTTACTTGCCAACTT (sugars k3 d10 k3, PS), the target mRNA inhibition is reported as 7%. With AGTTTGTCAATAGTAC (sugars k3 d10 k3, PS) the target mRNA inhibition was 42%. ATAACAAGTTTAAGGG (sugars k3 d10 k3, PS) showed a target mRNA inhibition of 41%. In the case of ATAATAGAGCTACTTA (sugars k3 d10 k3, PS), the target mRNA inhibition is reported as 19%. Sequence ATACAAACTGCTTACA (sugars k3 d10 k3, PS) has a target mRNA inhibition of -30%. Sequence ATACCCTTCTGTTAAC (sugars k3 d10 k3, PS) has a target mRNA inhibition of 2%. In the case of ATAGACCCCTGACTTT (sugars k3 d10 k3, PS), the target mRNA inhibition is reported as 34%. In the case of ATAGAGCTACTTAGCT (sugars k3 d10 k3, PS), the target mRNA inhibition is reported as 19%. ATAGTTCAACCCACCA (sugars k3 d10 k3, PS) showed a target mRNA inhibition of 21%. Sequence ATAGTTTACCACCTTT (sugars k3 d10 k3, PS) has a target mRNA inhibition of 39%. For ATATTGCCGACCTCAC (sugars k3 d10 k3, PS), the target mRNA inhibition was 26%. With ATATTTGCCCCTCCCC (sugars k3 d10 k3, PS) the target mRNA inhibition was 27%. In the case of ATCAAACACTGGTTCC (sugars k3 d10 k3, PS), the target mRNA inhibition is reported as 48%. ATCAAGTCAAGCTCCT (sugars k3 d10 k3, PS) gave a target mRNA inhibition of 11%. With ATCACAAATACGACTG (sugars k3 d10 k3, PS) the target mRNA inhibition was 34%. ATCAGGTGAGGCTGAC (sugars k3 d10 k3, PS) gave a target mRNA inhibition of 23%. In the case of ATCCCCCCCAAGATTG (sugars k3 d10 k3, PS), the target mRNA inhibition is reported as 5%. ATCCCTAACATGCAAT (sugars k3 d10 k3, PS) was tested, and the target mRNA inhibition was 23%. ATCCTACCACTCCCAA (sugars k3 d10 k3, PS) was tested, and the target mRNA inhibition was 34%. In the case of ATCCTCTACGCACAAC (sugars k3 d10 k3, PS), the target mRNA inhibition is reported as 42%. In the case of ATCCTGAATGGCTTCA (sugars k3 d10 k3, PS), the target mRNA inhibition is reported as 0%. For ATCTAAAAGCATTGCC (sugars k3 d10 k3, PS), the target mRNA inhibition was 18%. ATCTCAACCTCCGTCA (sugars k3 d10 k3, PS) gave a target mRNA inhibition of 34%. ATCTGTTAACAGCTGC (sugars k3 d10 k3, PS) was tested, and the target mRNA inhibition was 71% and 76%. Sequence ATCTTAGTAACCTATT (sugars k3 d10 k3, PS) has a target mRNA inhibition of 17%. ATGCAATACTGCAGAT (sugars k3 d10 k3, PS) gave a target mRNA inhibition of 1%. Sequence ATGCACTAAAGATCAC (sugars k3 d10 k3, PS) has a target mRNA inhibition of 34%. ATGCATTCTAATAGCA (sugars k3 d10 k3, PS) showed a target mRNA inhibition of -1%. Work on ATGGACATCTCTTCCA (sugars k3 d10 k3, PS) yielded a target mRNA inhibition of 30%. ATGGATCATGCCCACA (sugars k3 d10 k3, PS) showed a target mRNA inhibition of 12%. In the case of ATTAAGAGCTGCTATA (sugars k3 d10 k3, PS), the target mRNA inhibition is reported as -4%. Work on ATTACCTAAACCCACC (sugars k3 d10 k3, PS) yielded a target mRNA inhibition of -10%. Work on ATTACTCTAATCACTG (sugars k3 d10 k3, PS) yielded a target mRNA inhibition of 28%. ATTACTCTTGATCTTG (sugars k3 d10 k3, PS) was tested, and the target mRNA inhibition was 71% and 56%. ATTAGTAGTCAAAGCA (sugars k3 d10 k3, PS) was tested, and the target mRNA inhibition was 20%. Sequence ATTCATGAGTATAAGC (sugars k3 d10 k3, PS) has a target mRNA inhibition of 29%. With ATTCCCCAATGGAGGT (sugars k3 d10 k3, PS) the target mRNA inhibition was 36%. ATTCGATCACCTTCCG (sugars k3 d10 k3, PS) showed a target mRNA inhibition of 19%. Work on ATTCTAATAGCAGCGG (sugars k3 d10 k3, PS) yielded a target mRNA inhibition of 32%. In the case of ATTGGTATTAATTCGG (sugars k3 d10 k3, PS), the target mRNA inhibition is reported as 70% and 75% and 92%. Work on ATTTAAGGCCTTCCAA (sugars k3 d10 k3, PS) yielded a target mRNA inhibition of 30%. ATTTTAAACGGGTCAT (sugars k3 d10 k3, PS) was tested, and the target mRNA inhibition was 7%. Work on ATTTTGTCCACTGGTG (sugars k3 d10 k3, PS) yielded a target mRNA inhibition of 50%. ATTTTTGAAGCATACC (sugars k3 d10 k3, PS) was tested, and the target mRNA inhibition was 41% and 57%. Work on CAAAGACCTCGACACC (sugars k3 d10 k3, PS) yielded a target mRNA inhibition of 18%. CAAAGATATTGTGCTG (sugars k3 d10 k3, PS) was tested, and the target mRNA inhibition was -10%. CAAATCGCCATGGAAA (sugars k3 d10 k3, PS) showed a target mRNA inhibition of 14%. For CAAATTAATGCACTGG (sugars k3 d10 k3, PS), the target mRNA inhibition was 15%. In the case of CAACAATTTAGAGCTT (sugars k3 d10 k3, PS), the target mRNA inhibition is reported as 12%. CAACAGCACAGCGGTA (sugars k3 d10 k3, PS) gave a target mRNA inhibition of -5%. CAACATTTGGCCTACT (sugars k3 d10 k3, PS) showed a target mRNA inhibition of 17%. CAACCCACCAAAGACC (sugars k3 d10 k3, PS) gave a target mRNA inhibition of 2%. In the case of CAACTCGCATCACCGG (sugars k3 d10 k3, PS), the target mRNA inhibition is reported as 9%. In the case of CAACTGGAAGCTCCTT (sugars k3 d10 k3, PS), the target mRNA inhibition is reported as 23%. Work on CAAGACCAAACTGCAG (sugars k3 d10 k3, PS) yielded a target mRNA inhibition of -28%. Work on CAAGGCAAATCGCCAT (sugars k3 d10 k3, PS) yielded a target mRNA inhibition of 42%. CAATCACAAATACGAC (sugars k3 d10 k3, PS) gave a target mRNA inhibition of 18%. With CAATCCACTTGATCCC (sugars k3 d10 k3, PS) the target mRNA inhibition was 56% and 44%. Work on CAATCCCAACCGTAAC (sugars k3 d10 k3, PS) yielded a target mRNA inhibition of 9%. Work on CAATCCTGAAATCCCC (sugars k3 d10 k3, PS) yielded a target mRNA inhibition of 16%. With CACACTGGCATGCTGG (sugars k3 d10 k3, PS) the target mRNA inhibition was 9%. In the case of CACAGCTCGGGCGAGG (sugars k3 d10 k3, PS), the target mRNA inhibition is reported as 25%. For CACCAATCCCAACCGT (sugars k3 d10 k3, PS), the target mRNA inhibition was 5%. CACCCAAAAGCCCTCT (sugars k3 d10 k3, PS) gave a target mRNA inhibition of 17%. For CACCCTCTAAGAGACA (sugars k3 d10 k3, PS), the target mRNA inhibition was 1%. Work on CACCTGGGTCAGCTGT (sugars k3 d10 k3, PS) yielded a target mRNA inhibition of 25%. Sequence CACGAACTGCTGCTTG (sugars k3 d10 k3, PS) has a target mRNA inhibition of 55%. CACGGATTTTTACCAA (sugars k3 d10 k3, PS) showed a target mRNA inhibition of 19%. Work on CACGGCCCGCACGGAA (sugars k3 d10 k3, PS) yielded a target mRNA inhibition of -1%. With CACTCCCAATTAATCT (sugars k3 d10 k3, PS) the target mRNA inhibition was 8%. Work on CACTCTGATCTGCGGC (sugars k3 d10 k3, PS) yielded a target mRNA inhibition of -28%. In the case of CACTGCAAGGTCTCAT (sugars k3 d10 k3, PS), the target mRNA inhibition is reported as 41%. For CACTTGATCCCAACTC (sugars k3 d10 k3, PS), the target mRNA inhibition was 44%. CACTTTAGAGGCTTTT (sugars k3 d10 k3, PS) showed a target mRNA inhibition of 42%. CAGAAGCCCCTGCGCT (sugars k3 d10 k3, PS) showed a target mRNA inhibition of 3%. CAGAGTTTGAGTGGTT (sugars k3 d10 k3, PS) gave a target mRNA inhibition of 16%. For CAGCACAGCGGTACAC (sugars k3 d10 k3, PS), the target mRNA inhibition was 7%. CAGCACATCATGCTAT (sugars k3 d10 k3, PS) showed a target mRNA inhibition of 15%. For CAGCACGGGCTGTCTG (sugars k3 d10 k3, PS), the target mRNA inhibition was -33%. With CAGCAGTAGGGCTTCT (sugars k3 d10 k3, PS) the target mRNA inhibition was -1%. CAGCCTATAAGGACAG (sugars k3 d10 k3, PS) showed a target mRNA inhibition of 22%. For CAGGACTTGGCAGTCT (sugars k3 d10 k3, PS), the target mRNA inhibition was 14%. For CAGGAGTGCCAACCAC (sugars k3 d10 k3, PS), the target mRNA inhibition was -2%.
